Test results from PubChem BioAssay (NCI).
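Each compound was tested at five concentrations against cells in 96-well plates for 48 hours. TGI is the concentration that stops growth completely.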

Assays:
Test in all cases: NCI-60 cell line screen, 48 h
ACHN renal = tested on: ACHN renal
HL-60(TB) leukemia = tested on: HL-60(TB) leukemia
HOP-62 NSCLC = tested on: HOP-62 NSCLC
M14 melanoma = tested on: M14 melanoma
NCI-H23 lung = tested on: NCI-H23 lung
OVCAR-3 ovarian = tested on: OVCAR-3 ovarian
OVCAR-8 ovarian = tested on: OVCAR-8 ovarian
SF-295 CNS = tested on: SF-295 CNS
SR leukemia = tested on: SR leukemia
U251 CNS = tested on: U251 CNS

O=C1CCSSCCC(=O)NCCN1
TGI (ACHN renal): > 100 µM
TGI (HL-60(TB) leukemia): > 100 µM
TGI (HOP-62 NSCLC): > 100 µM
TGI (M14 melanoma): > 100 µM
TGI (NCI-H23 lung): > 100 µM
TGI (OVCAR-3 ovarian): > 100 µM
TGI (OVCAR-8 ovarian): > 100 µM
TGI (SF-295 CNS): > 100 µM
TGI (SR leukemia): > 100 µM
TGI (U251 CNS): > 100 µM

CC(=O)OC(C)c1cc2c(s1)C(=O)c1sccc1C2=O (centres undefined)
TGI (HL-60(TB) leukemia): > 100 µM
TGI (HOP-62 NSCLC): 2.65 µM
TGI (M14 melanoma): 0.389 µM
TGI (NCI-H23 lung): 0.546 µM
TGI (OVCAR-3 ovarian): 8.71 µM
TGI (OVCAR-8 ovarian): 4.66 µM
TGI (SF-295 CNS): 2.56 µM
TGI (SR leukemia): > 100 µM
TGI (U251 CNS): 4.4 µM

C=C1[C@@H](O)C[C@@]23CC[C@@H]4[C@@]5(C)CC[C@@H](OC(C)=O)C(C)(C)[C@@H]5C[C@@H](OC5OC(COC(C)=O)C(O)C(O)C5O)[C@@]4(C)C2=CC[C@H]3[C@H]1C (some centres undefined)
TGI (ACHN renal): 21.9 µM
TGI (HL-60(TB) leukemia): 4.86 µM
TGI (HOP-62 NSCLC): 25.8 µM
TGI (M14 melanoma): 16.4 µM
TGI (NCI-H23 lung): 26.5 µM
TGI (OVCAR-3 ovarian): 16.2 µM
TGI (OVCAR-8 ovarian): 21.8 µM
TGI (SF-295 CNS): 14.8 µM
TGI (SR leukemia): 5.07 µM
TGI (U251 CNS): 12.5 µM

Cc1nn(C(=O)Cc2ccccc2)c2c1C(c1ccccc1O)SC(N)=N2 (centres undefined)
TGI (ACHN renal): > 100 µM
TGI (HL-60(TB) leukemia): > 100 µM
TGI (HOP-62 NSCLC): > 100 µM
TGI (M14 melanoma): > 100 µM
TGI (NCI-H23 lung): > 100 µM
TGI (OVCAR-8 ovarian): > 100 µM
TGI (SF-295 CNS): > 100 µM
TGI (SR leukemia): > 100 µM

NC(=O)C(=O)N/N=C1/c2ccccc2CC1C1(O)C(=O)Nc2c(Cl)cc(Cl)cc21 (centres undefined)
TGI (ACHN renal): > 100 µM
TGI (HL-60(TB) leukemia): > 100 µM
TGI (HOP-62 NSCLC): > 100 µM
TGI (NCI-H23 lung): > 100 µM
TGI (OVCAR-3 ovarian): > 100 µM
TGI (OVCAR-8 ovarian): > 100 µM
TGI (SF-295 CNS): > 100 µM
TGI (SR leukemia): > 100 µM
TGI (U251 CNS): > 100 µM

CCN(CC)CCOC(NC(C)=O)(c1ccccc1)c1ccccc1
TGI (ACHN renal): > 100 µM
TGI (HL-60(TB) leukemia): > 100 µM
TGI (HOP-62 NSCLC): > 100 µM
TGI (M14 melanoma): > 100 µM
TGI (NCI-H23 lung): > 100 µM
TGI (OVCAR-8 ovarian): > 100 µM
TGI (SF-295 CNS): > 100 µM
TGI (SR leukemia): > 100 µM
TGI (U251 CNS): > 100 µM

N#Cc1nc(-c2cc([N+](=O)[O-])cc([N+](=O)[O-])c2)oc1N
TGI (ACHN renal): > 10 µM
TGI (HL-60(TB) leukemia): > 10 µM
TGI (HOP-62 NSCLC): > 10 µM
TGI (M14 melanoma): > 10 µM
TGI (NCI-H23 lung): > 10 µM
TGI (OVCAR-8 ovarian): > 10 µM
TGI (SF-295 CNS): > 10 µM
TGI (SR leukemia): > 10 µM

CCOC1CC(=O)c2c(Br)sc(Br)c21 (centres undefined)
TGI (ACHN renal): 36.7 µM
TGI (HL-60(TB) leukemia): 48.6 µM
TGI (HOP-62 NSCLC): 38.2 µM
TGI (M14 melanoma): 36.2 µM
TGI (NCI-H23 lung): 37.4 µM
TGI (OVCAR-3 ovarian): 28.5 µM
TGI (OVCAR-8 ovarian): 38.5 µM
TGI (SF-295 CNS): 77.4 µM
TGI (SR leukemia): 60.3 µM
TGI (U251 CNS): 33.1 µM

Cc1cc(C)c2c(=O)n(CN3CC4Nc5ccccc5C4C3)sc2n1 (centres undefined)
TGI (ACHN renal): 33.8 µM
TGI (HL-60(TB) leukemia): 63.2 µM
TGI (HOP-62 NSCLC): > 100 µM
TGI (M14 melanoma): 63.1 µM
TGI (NCI-H23 lung): 47.6 µM
TGI (OVCAR-3 ovarian): 98.5 µM
TGI (OVCAR-8 ovarian): 52 µM
TGI (SF-295 CNS): > 100 µM
TGI (SR leukemia): > 100 µM
TGI (U251 CNS): > 100 µM

COc1ccc(/C(=N/O)c2ccccc2-c2nc3ccccc3c(=O)n2-c2ccc(S(=O)(=O)Nc3ncccn3)cc2)cc1C
TGI (ACHN renal): 25.1 µM
TGI (HL-60(TB) leukemia): 20 µM
TGI (HOP-62 NSCLC): > 31.6 µM
TGI (M14 melanoma): > 31.6 µM
TGI (NCI-H23 lung): 27.6 µM
TGI (OVCAR-3 ovarian): 25.9 µM
TGI (OVCAR-8 ovarian): > 31.6 µM
TGI (SF-295 CNS): 27.9 µM
TGI (SR leukemia): 31 µM
TGI (U251 CNS): 22.9 µM

COc1cc(/C=C2\C(=O)N(C(=O)Cc3ccccc3)N=C2C)ccc1O
TGI (ACHN renal): > 100 µM
TGI (HL-60(TB) leukemia): > 100 µM
TGI (HOP-62 NSCLC): > 100 µM
TGI (M14 melanoma): > 100 µM
TGI (NCI-H23 lung): > 100 µM
TGI (OVCAR-3 ovarian): > 100 µM
TGI (OVCAR-8 ovarian): > 100 µM
TGI (SF-295 CNS): > 100 µM
TGI (SR leukemia): > 100 µM

CCNC(=O)Nc1ccccn1
TGI (ACHN renal): > 100 µM
TGI (HL-60(TB) leukemia): > 100 µM
TGI (HOP-62 NSCLC): > 100 µM
TGI (M14 melanoma): > 100 µM
TGI (NCI-H23 lung): > 100 µM
TGI (OVCAR-3 ovarian): > 100 µM
TGI (OVCAR-8 ovarian): > 100 µM
TGI (SF-295 CNS): > 100 µM
TGI (SR leukemia): > 100 µM
TGI (U251 CNS): > 100 µM

COC(=O)c1ccccc1/C=C1/Cc2ccccc2C1=O
TGI (ACHN renal): > 100 µM
TGI (HL-60(TB) leukemia): > 100 µM
TGI (HOP-62 NSCLC): > 100 µM
TGI (NCI-H23 lung): > 100 µM
TGI (OVCAR-3 ovarian): > 100 µM
TGI (OVCAR-8 ovarian): > 100 µM
TGI (SF-295 CNS): > 100 µM
TGI (SR leukemia): > 100 µM
TGI (U251 CNS): 94.9 µM

COc1cc2c(cc1OCCCCOc1cc(-c3ccc(F)cc3)nc(C)n1)N=C[C@@H]1CCCN1C2=O
TGI (ACHN renal): 0.823 µM
TGI (HL-60(TB) leukemia): 28.7 µM
TGI (HOP-62 NSCLC): 3.43 µM
TGI (M14 melanoma): 1.87 µM
TGI (NCI-H23 lung): 1.37 µM
TGI (OVCAR-3 ovarian): 2.66 µM
TGI (OVCAR-8 ovarian): 6.6 µM
TGI (SF-295 CNS): 2.26 µM
TGI (SR leukemia): 0.363 µM
TGI (U251 CNS): 2.55 µM

CCC[C@H]1C(=O)N=C(N)N1C(=O)OCc1ccccc1
TGI (ACHN renal): > 100 µM
TGI (HL-60(TB) leukemia): > 100 µM
TGI (HOP-62 NSCLC): > 100 µM
TGI (NCI-H23 lung): > 100 µM
TGI (OVCAR-3 ovarian): > 100 µM
TGI (OVCAR-8 ovarian): > 100 µM
TGI (SF-295 CNS): > 100 µM
TGI (SR leukemia): > 100 µM
TGI (U251 CNS): > 100 µM

Cc1cc(-c2nc3c(O)cccc3s2)ccc1N
TGI (ACHN renal): 43.4 µM
TGI (HL-60(TB) leukemia): 44.5 µM
TGI (HOP-62 NSCLC): 88.8 µM
TGI (M14 melanoma): 39.5 µM
TGI (NCI-H23 lung): 89.4 µM
TGI (OVCAR-3 ovarian): > 100 µM
TGI (OVCAR-8 ovarian): 54.4 µM
TGI (SF-295 CNS): 72.2 µM
TGI (SR leukemia): 93.8 µM
TGI (U251 CNS): > 100 µM

CC(C)=C[C@@H]1C[C@H](n2cc(C)c(=O)[nH]c2=O)ON1CCO
TGI (ACHN renal): > 100 µM
TGI (HL-60(TB) leukemia): > 100 µM
TGI (HOP-62 NSCLC): > 100 µM
TGI (M14 melanoma): > 100 µM
TGI (OVCAR-3 ovarian): > 100 µM
TGI (OVCAR-8 ovarian): > 100 µM
TGI (SF-295 CNS): > 100 µM
TGI (SR leukemia): > 100 µM
TGI (U251 CNS): > 100 µM

CC(C)(C)N=c1n(C(C)(C)C)oc(=O)n1C(C)(C)C
TGI (ACHN renal): > 100 µM
TGI (HL-60(TB) leukemia): > 100 µM
TGI (HOP-62 NSCLC): > 100 µM
TGI (M14 melanoma): > 100 µM
TGI (NCI-H23 lung): > 100 µM
TGI (OVCAR-3 ovarian): > 100 µM
TGI (OVCAR-8 ovarian): > 100 µM
TGI (SF-295 CNS): > 100 µM
TGI (SR leukemia): > 100 µM
TGI (U251 CNS): > 100 µM

Cc1cn2c(/C=C3/C(=O)Nc4cccc(Cl)c43)c(Cl)nc2s1
TGI (ACHN renal): > 100 µM
TGI (HL-60(TB) leukemia): > 100 µM
TGI (HOP-62 NSCLC): 39.1 µM
TGI (M14 melanoma): > 100 µM
TGI (NCI-H23 lung): > 100 µM
TGI (OVCAR-3 ovarian): > 100 µM
TGI (OVCAR-8 ovarian): > 100 µM
TGI (SF-295 CNS): > 100 µM
TGI (SR leukemia): > 100 µM
TGI (U251 CNS): 27.3 µM

CCC1=CCC23C(=O)C=CC(=O)C2(C1)C(=O)c1cccc(OC)c1C3=O (centres undefined)
TGI (ACHN renal): 27.4 µM
TGI (HL-60(TB) leukemia): 7.36 µM
TGI (HOP-62 NSCLC): 42.9 µM
TGI (M14 melanoma): 30.4 µM
TGI (NCI-H23 lung): 46.4 µM
TGI (OVCAR-3 ovarian): 27.2 µM
TGI (OVCAR-8 ovarian): 29.9 µM
TGI (SF-295 CNS): > 100 µM
TGI (SR leukemia): 41.4 µM
TGI (U251 CNS): 61.8 µM

O=C1c2ccccc2CN1c1ccc(O)cc1
TGI (ACHN renal): > 100 µM
TGI (HL-60(TB) leukemia): > 100 µM
TGI (HOP-62 NSCLC): > 100 µM
TGI (M14 melanoma): > 100 µM
TGI (NCI-H23 lung): > 100 µM
TGI (OVCAR-3 ovarian): > 100 µM
TGI (OVCAR-8 ovarian): > 100 µM
TGI (SF-295 CNS): > 100 µM
TGI (SR leukemia): > 100 µM
TGI (U251 CNS): > 100 µM
